Results as given in article PMC5729930, “Bitopic fluorescent antagonists of the A2A adenosine receptor based on pyrazolo[4,3-e][1,2,4]triazolo[1,5-c]pyrimidin-5-amine functionalized congeners” (MedChemComm, 2017).

Biological target: 45 diverse receptors
Experiment: PDSP comprehensive off-target screen
Format: binding
Conditions: PDSP comprehensive screen at 45 targets
Method: . Off-target binding activities at 45 diverse receptors were determined by PDSP[25] for selected compounds: 6c and 13 (ESI ^†). […]; 1.92 μM, 5HT2B receptor. Thus, the primary amine precursor of the fluorescent conjugates 10–12 was not promiscuous in its interaction with other proteins, i.e. this chemical series is not associated with pan-assay interference compounds.[26]
Chinese hamster ovary (CHO) cells stably expressing the human A2AAR were cultured in Dulbecco's Modified Eagle Medium (Mediatech, Manassas, VA) supplemented with 10% fetal bovine serum, 100 units/ml penicillin, 100 µg/ml streptomycin and 2 µmol/ml glutamine. Cells were plated in 96-well plates in 100 µl medium. After 24 h, the medium was removed and cells were washed three times with 100 µl DMEM, containing 50 mM HEPES, pH 7.4. Cells were treated with antagonists (or medium for control) in the presence of rolipram (10 µM) and adenosine deaminase (3 units/ml) and 5 min later with agonist for 20 min. The reaction was terminated by removal of the supernatant, and cells were lysed upon the addition of 100 µl of lysis buffer (0.3% Tween-20). cAMP was measured using ALPHAScreen cAMP kits (PerkinElmer, Boston, MA) as instructed by the manufacturer.
Refer to: http://pdspdb.unc.edu for full list of comprehensive screen at 45 targets.
5HT2A serotonin receptor: […]

Off-target interactions (Ki in radioligand binding inhibition < 10 µM): None detected
Compound: N.Nc1nc2c(cnn2CCCc2ccc(OCc3ccc(S(=O)(=O)O)cc3)cc2)c2nc(-c3ccco3)nn12 [compound 13]
